# Data as given in patent US9452997B2, “Piperidine and piperazine derivatives as autotaxin inhibitors” (Merck Patent GmbH, priority 2009, dated 2016).
# Molecular target: T1, Recombinant autotaxin (Homo sapiens, UniProt Q13822)
# T1 construct: made in house; host or cells: Hi5 insect cells (baculovirus)
# Experiment: Autotaxin assay (Amplex Red, LPC substrate)
# Assay type: biochemical
# Conditions: recombinant autotaxin, LPC substrate, Amplex Red detection; values given as upper bounds
# Method in brief: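 Recombinant autotaxin (Hi5 baculovirus, 16 ng) pre-incubated with compound 30 min at 22° C, then reacted with 75 μM egg LPC for 90 min at 37° C. Choline released is coupled to H2O2 and Amplex Red fluorescence (ex 485/em 612 nm). IC50 from ten 1:3 dilutions from 30 μM, duplicates, normalised to 500 μM C14 LPA.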
row,IC50,SMILES
1,< 10 µM,"Cc1oc(-c2ccccc2)cc1COC(=O)N1CCN(C2CCN(C(=O)c3ccc4[nH]nnc4c3)CC2)CC1 [Compound 173, 4-[1-(1H-Benzotriazole-5-carbonyl)-piperidin-4-yl]-piperazine-1-carboxylic acid 2-methyl-5-phenyl-furan-3-ylmethyl ester]"
2,< 10 µM,"Cc1nc(-c2ccc(Cl)cc2)sc1COC(=O)N1CCN(C2CCN(C(=O)c3ccc4[nH]nnc4c3)CC2)CC1 [Compound 174, 4-[1-(1H-Benzotriazole-5-carbonyl)-piperidin-4-yl]-piperazine-1-carboxylic acid 2-(4-chloro-phenyl)-4-methyl-thiazol-5-ylmethyl ester]"
3,< 10 µM,"O=C(OCC1CN(c2ccc(Cl)cc2)C(=O)O1)N1CCN(C2CCN(C(=O)c3ccc4[nH]nnc4c3)CC2)CC1 (centres unmarked) [Compound 175, 4-[1-(1H-Benzotriazole-5-carbonyl)-piperidin-4-yl]-piperazine-1-carboxylic acid 3-(4-chloro-phenyl)-2-oxo-oxazolidin-5-ylmethyl ester]"
4,< 30 µM,"Cc1ccc(C(C)CC(=O)N2CCN(C3CCN(C(=O)c4ccc5[nH]nnc5c4)CC3)CC2)cc1C (centres unmarked) [Compound 176, 1-{4-[1-(1H-Benzotriazole-5-carbonyl)-piperidin-4-yl]-piperazin-1-yl}-3-(3,4-dimethyl-phenyl)-butan-1-one]"
5,< 10 µM,"CC(CC(=O)N1CCN(C2CCN(C(=O)c3ccc4[nH]nnc4c3)CC2)CC1)c1ccc(C(F)(F)F)cc1 (centres unmarked) [Compound 177, 1-{4-[1-(1H-Benzotriazole-5-carbonyl)-piperidin-4-yl]-piperazin-1-yl}-3-(4-trifluoromethyl-phenyl)-butan-1-one]"
6,< 1 µM,"O=C(OC1(c2cc(C(F)(F)F)cc(C(F)(F)F)c2)CC1)N1CCN(C2CCN(C(=O)c3ccc4[nH]nnc4c3)CC2)CC1 [Compound 178, 4-[1-(1H-Benzotriazole-5-carbonyl)-piperidin-4-yl]-piperazine-1-carboxylic acid 1-(3,5-bis-trifluoromethyl-phenyl)-cyclopropyl ester]"
7,< 10 µM,"O=C(c1ccc2[nH]nnc2c1)N1CCC(N2CCN(C(=O)C3CC3c3ccc(Cl)cc3)CC2)CC1 (centres unmarked) [Compound 179, (1H-Benzoriazol-5-yl)-(4-{4-[2-(4-chloro-phenyl)-cyclopropanecarbonyl]-piperazin-1-yl}-piperidin-1-yl)-methanone]"
8,< 10 µM,"O=C(CN1CCC(N2CCN(C(=O)c3ccc4[nH]nnc4c3)CC2)CC1)Nc1cc(C(F)(F)F)cc(C(F)(F)F)c1 [Compound 180, 2-{4-[4-(1H-Benzotriazole-5-carbonyl)-piperazin-1-yl]-piperidin-1-yl}-N-(3,5-bis-trifluoromethyl-phenyl)-acetamide]"
9,< 10 µM,"COc1ccc(Cl)cc1NC(=O)CN1CCC(N2CCN(C(=O)c3ccc4[nH]nnc4c3)CC2)CC1 [Compound 181, 2-{4-[4-(1H-Benzotriazole-5-carbonyl)-piperazin-1-yl]-piperidin-1-yl}-N-(5-chloro-2-methoxy-phenyl)-acetamide]"
10,< 10 µM,"CN(C1CCN(C(=O)OCc2ccc(C(F)(F)F)cc2)CC1)C1CCN(C(=O)c2ccc3[nH]nnc3c2)C1 (centres unmarked) [Compound 182, 4-{[1-(1H-Benzotriazole-5-carbonyl)-pyrrolidin-3-yl]-methyl-amino}-piperidine-1-carboxylic acid 4-trifluoromethyl-benzyl ester]"
11,< 10 µM,"O=C(OCc1cc(Cl)cc(C(F)(F)F)c1)N1CCN(C2CCN(S(=O)(=O)c3ccc4[nH]c(=O)oc4c3)CC2)CC1 [Compound 183, 4-[1-(2-Oxo-2,3-dihydro-benzooxazole-6-sulfonyl)-piperidin-4-yl]-piperazine-1-carboxylic acid 3-chloro-5-trifluoromethyl-benzyl ester]"
12,< 1 µM,"O=C(OCc1cc(C(F)(F)F)cc(C(F)(F)F)c1)N1CCN(C2CCN(C(=O)c3ccc4[nH]nnc4c3)CC2)C(=O)C1 [Compound 184, 4-[1-(1H-Benzotriazole-5-carbonyl)-piperidin-4-yl]-3-oxo-piperazine-1-carboxylic acid 3,5-bis-trifluoromethyl-benzyl ester]"
13,< 30 µM,"O=C(NC1CCC(N2CCN(C(=O)OCc3ccccc3)CC2)CC1)c1ccc2[nH]nnc2c1 (centres unmarked) [Compound 185, 4-{4-[(1H-Benzotriazole-5-carbonyl)-amino]-cyclohexyl}-piperazine-1-carboxylic acid benzyl ester]"
14,< 1 µM,"O=C(NC1CCC(N2CCN(C(=O)OCc3cc(C(F)(F)F)cc(C(F)(F)F)c3)CC2)CC1)c1ccc2[nH]nnc2c1 (centres unmarked) [Compound 186, 4-{4-[(1H-Benzotriazole-5-carbonyl)-amino]-cyclohexyl}-piperazine-1-carboxylic acid 3,5-bis-trifluoromethyl-benzyl ester]"
15,< 1 µM,"O=C(NC1CCC(N2CCN(C(=O)OCc3cc(Cl)cc(C(F)(F)F)c3)CC2)CC1)c1ccc2[nH]nnc2c1 (centres unmarked) [Compound 187, 4-{4-[(1H-Benzotriazole-5-carbonyl)-amino]-cyclohexyl}-piperazine-1-carboxylic acid 3-chloro-5-trifluoromethyl-benzyl ester]"
16,< 10 µM,"O=C(NC1CCC(N2CCN(C(=O)OCc3ccc(SC(F)(F)F)cc3)CC2)CC1)c1ccc2[nH]nnc2c1 (centres unmarked) [Compound 188, 4-{4-[(1H-Benzotriazole-5-carbonyl)-amino]-cyclohexyl}-piperazine-1-carboxylic acid 4-trifluoromethylsulfanyl-benzyl ester]"
17,< 10 µM,"O=C(NC1CCC(N2CCN(C(=O)OCc3ccc(C(F)(F)F)c(F)c3)CC2)CC1)c1ccc2[nH]nnc2c1 (centres unmarked) [Compound 189, 4-{4-[(1H-Benzotriazole-5-carbonyl)-amino]-cyclohexyl}-piperazine-1-carboxylic acid 3-fluoro-4-trifluoromethyl-benzyl ester]"
